Results: patent US8664220B2, “Polycyclic compounds as lysophosphatidic acid receptor antagonists” (Amira Pharmaceuticals, Inc., priority 2009, dated 2014)
pIC50: −log10 of the molar value.

Target: T1, human LPA1 (Homo sapiens, UniProt Q92633)
T1 construct: the full-length cDNA for human LPA1 was obtained by PCR of the reverse transcription reaction; expressed in transfected cells
Test: LPA1 calcium flux assay
Assay type: cell-based
Conditions: human LPA1 expressing CHO cells, stimulated with 10 nM LPA; read-out: HLPA1 Ca Flux IC50
Description: Establishment of a CHO Cell Line Stably Expressing Human LPA1
A 1.1 kb cDNA encoding the human LPA1 receptor was cloned from human lung.
Human lung RNA (Clontech Laboratories, Inc. USA) was reverse transcribed using the RETROscript kit (Ambion, Inc.) and the full-length cDNA for human LPA1 was obtained by PCR of the reverse transcription reaction. The nucleotide sequence of the cloned human LPA1 was determined by sequencing and confirmed to be identical to the published human LPA1 sequence (An et al. Biochem. Biophys. Res. Commun. 231:619 (1997). The cDNA was cloned into the pcDNA5/FRT expression plasmid and transfected in CHO cells using lipofectamine 2000 (Invitrogen Corp., USA). Clones stably expressing human LPA1 were selected using hygromycin and identified as cells that show Ca-influx in response to LPA.
LPA1 and LPA3 Calcium Flux Assays
Human LPA1 or LPA3 expressing CHO cells are seeded at 20,000-45,000 cells per well in a 96-well poly-D-lysine coated plate one or two days before the assay. Prior to the assay, the cells are washed once with PBS and then cultured in serum-free media overnight. On the day of the assay, a calcium indicator dye (Calcium 4, Molecular Devices) in assay buffer (HBSS with Ca^2+ and Mg^2+ and containing 20 mM Hepes and 0.3% fatty-acid free human serum albumin) is added to each well and incubation continued for 1 hour at 37° C. 10 μl of test compounds in 2.5% DMSO are added to the cells and incubation continued at room temperature for 30 minutes. Cells are the stimulated by the addition of 10 nM LPA and intracellular Ca^2+ measured using the Flexstation 3 (Molecular Devices). IC50s are determined using Graphpad prism analysis of drug titration curves.

T1 sequence (Q92633 whole entry): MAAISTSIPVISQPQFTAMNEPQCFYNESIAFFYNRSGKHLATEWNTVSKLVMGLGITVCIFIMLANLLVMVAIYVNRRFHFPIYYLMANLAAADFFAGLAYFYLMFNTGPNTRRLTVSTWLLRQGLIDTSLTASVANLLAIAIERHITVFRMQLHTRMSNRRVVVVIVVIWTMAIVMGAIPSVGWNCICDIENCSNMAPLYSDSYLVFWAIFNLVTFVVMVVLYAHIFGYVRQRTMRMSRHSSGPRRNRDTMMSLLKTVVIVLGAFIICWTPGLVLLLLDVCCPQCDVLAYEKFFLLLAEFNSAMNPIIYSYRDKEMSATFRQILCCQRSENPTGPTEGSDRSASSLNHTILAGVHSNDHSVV

Compound | pIC50
Cc1noc(-c2ccc(-c3ccc(C4(C(=O)O)CC4)cc3)cc2)c1NC(C)[C@@H]1C[C@H]1c1ccccc1 (relative stereo) [Compound 1-66, 1-(4′-{3-Methyl-4-[trans-1-(2-phenyl-cyclopropyl)-ethylamino]-isoxazol-5-yl}-biphenyl-4-yl)-cyclopropanecarboxylic acid] | > 6.52
Cc1noc(-c2ccc(-c3ccc(C4(C(=O)O)CC4)cc3)cc2)c1C1CC1C(=O)N(C)[C@H](C)c1ccccc1 (single isomer, unassigned) [Compound 1-26] | 6.00 to 6.52
Cc1noc(-c2ccc(-c3ccc(C4(C(=O)O)CC4)cc3)cc2)c1C1CC1C(=O)N(C)[C@H](C)c1ccccc1 (single isomer, unassigned) [Compound 1-27] | 6.00 to 6.52
Cc1noc(-c2ccc(-c3ccc(C4(C(=O)O)CC4)cc3)cc2)c1C(O)c1nnc(Cc2ccccc2)o1 (single isomer, unassigned) [Compound 1-34, 1-(4′-{4-[(5-Benzyl-[1,3,4]oxadiazol-2-yl)-hydroxy-methyl]-3-methyl-isoxazol-5-yl}-biphenyl-4-yl)-cyclopropanecarboxylic acid] | > 6.52
Cc1noc(-c2ccc(-c3ccc(C4(C(=O)O)CC4)cc3)cc2)c1C(O)c1nnc(Cc2ccccc2)o1 (single isomer, unassigned) [Compound 1-35, 1-(4′-{4-[(5-Benzyl-[1,3,4]oxadiazol-2-yl)-hydroxy-methyl]-3-methyl-isoxazol-5-yl}-biphenyl-4-yl)-cyclopropanecarboxylic acid] | > 6.52
Cc1noc(-c2ccc(-c3ccc(C4(C(=O)O)CC4)cc3)cc2)c1C(O)c1cn(Cc2ccccc2)nn1 (single isomer, unassigned) [Compound 1-40, 1-(4′-{4-[(1-Benzyl-1H-[1,2,3]triazol-4-yl)-hydroxy-methyl]-3-methyl-isoxazol-5-yl}-biphenyl-4-yl)-cyclopropanecarboxylic acid] | > 6.52
Cc1noc(-c2ccc(-c3ccc(C4(CC(=O)O)CC4)cc3)cc2)c1NC(C)c1cc(-c2ccccc2)no1 (single isomer, unassigned) [Compound 1-43, [1-(4′-{3-Methyl-4-[1-(3-phenyl-isoxazol-5-yl)-ethylamino]-isoxazol-5-yl}-biphenyl-4-yl)-cyclopropyl]-acetic acid] | > 6.52
Cc1noc(-c2ccc(-c3ccc(C4(CC(=O)O)CC4)cc3)cc2)c1NC(C)c1cc(-c2ccccc2)no1 (single isomer, unassigned) [Compound 1-44, [1-(4′-{3-Methyl-4-[1-(3-phenyl-isoxazol-5-yl)-ethylamino]-isoxazol-5-yl}-biphenyl-4-yl)-cyclopropyl]-acetic acid] | > 6.52
Cc1noc(-c2ccc(-c3ccc(C4(C(=O)NS(C)(=O)=O)CC4)cc3)cc2)c1C(O)c1cn(Cc2ccccc2)nn1 (single isomer, unassigned) [Compound 3-1, N-[1-(4′-{4-[(1-Benzyl-1H-[1,2,3]triazol-4-yl)-hydroxy-methyl]-3-methyl-isoxazol-5-yl}-biphenyl-4-yl)-cyclopropanecarbonyl]-methanesulfonamide] | > 6.52
Cc1noc(-c2ccc(-c3ccc(C4(C(=O)NS(C)(=O)=O)CC4)cc3)cc2)c1C(O)c1nnc(Cc2ccccc2)o1 (single isomer, unassigned) [Compound 3-2, N-[1-(4′-{4-[(5-Benzyl-[1,3,4]oxadiazol-2-yl)-hydroxy-methyl]-3-methyl-isoxazol-5-yl}-biphenyl-4-yl)-cyclopropanecarbonyl]-methanesulfonamide] | > 6.52
Cc1noc(-c2ccc(-c3ccc(C4(C(=O)O)CC4)cc3)cc2)c1NC1CCCCC1Cc1ccccc1 (stereo not shown) [Compound 1-1, 1-{4′-[4-(2-Benzyl-cyclohexylamino)-3-methyl-isoxazol-5-yl]-biphenyl-4-yl}-cyclopropanecarboxylic acid] | > 6.52
Cc1ccccc1N1CCN(C(=O)c2c(C)noc2-c2ccc(-c3ccc(C4(C(=O)O)CC4)cc3)cc2)CC1 [Compound 1-2, 1-{4′-[3-Methyl-4-(4-o-tolyl-piperazine-1-carbonyl)-isoxazol-5-yl]-biphenyl-4-yl}-cyclopropanecarboxylic acid] | 4.30 to 6.00
Cc1noc(-c2ccc(-c3ccc(C4(C(=O)O)CC4)cc3)cc2)c1C(=O)N1CCN(S(=O)(=O)c2ccc(Cl)c(Cl)c2)CC1 [Compound 1-3, 1-(4′-{4-[4-(3,4-Dichloro-benzenesulfonyl)-piperazine-1-carbonyl]-3-methyl-isoxazol-5-yl}-biphenyl-4-yl)-cyclopropanecarboxylic acid] | 4.30 to 6.00
Cc1noc(-c2ccc(-c3ccc(C4(C(=O)O)CC4)cc3)cc2)c1C1OC1CCc1ccccc1 (stereo not shown) [Compound 1-4, 1-{4′-[3-Methyl-4-(3-phenethyl-oxiranyl)-isoxazol-5-yl]-biphenyl-4-yl}-cyclopropanecarboxylic acid] | > 6.52
Cc1noc(-c2ccc(-c3ccc(C4(C(=O)O)CC4)cc3)cc2)c1Cn1ccc(-c2ccccc2)n1 [Compound 1-5, 1-{4′-[3-Methyl-4-(3-phenyl-pyrazol-1-ylmethyl)-isoxazol-5-yl]-biphenyl-4-yl}-cyclopropanecarboxylic acid] | > 6.52
Cc1noc(-c2ccc(-c3ccc(C4(C(=O)O)CC4)cc3)cc2)c1Cn1cc(-c2ccccc2)nn1 [Compound 1-6, 1-{4′-[3-Methyl-4-(4-phenyl-[1,2,3]triazol-1-ylmethyl)-isoxazol-5-yl]-biphenyl-4-yl}-cyclopropanecarboxylic acid] | > 6.52
Cc1noc(-c2ccc(-c3ccc(C4(C(=O)O)CC4)cc3)cc2)c1CN1CC(c2ccccc2)CC1=O (stereo not shown) [Compound 1-7, 1-{4′-[3-Methyl-4-(2-oxo-4-phenyl-pyrrolidin-1-ylmethyl)-isoxazol-5-yl]-biphenyl-4-yl}-cyclopropanecarboxylic acid] | > 6.52
Cc1noc(-c2ccc(-c3ccc(C4(C(=O)O)CC4)cc3)cc2)c1Cc1nnc(-c2ccccc2)o1 [Compound 1-8, 1-{4′-[3-Methyl-4-(5-phenyl[1,3,4]oxadiazol-2-ylmethyl)-isoxazol-5-yl]-biphenyl-4-yl}-cyclopropanecarboxylic acid] | > 6.52
Cc1noc(-c2ccc(-c3ccc(C4(C(=O)O)CC4)cc3)cc2)c1Cn1cc(Cc2ccccc2)nn1 [Compound 1-9, 1-{4′-[4-(4-Benzyl-[1,2,3]triazol-1-ylmethyl)-3-methyl-isoxazol-5-yl]-biphenyl-4-yl}-cyclopropanecarboxylic acid] | > 6.52
Cc1noc(-c2ccc(-c3ccc(C4(C(=O)O)CC4)cc3)cc2)c1CN1CCC(c2ccccc2)CC1 [Compound 1-10, 1-{4′-[3-Methyl-4-(4-phenyl-piperidin-1-ylmethyl)-isoxazol-5-yl]-biphenyl-4-yl}-cyclopropanecarboxylic acid] | < 4.30
Cc1noc(-c2ccc(-c3ccc(C4(C(=O)O)CC4)cc3)cc2)c1Cn1nc(-c2ccccc2)oc1=N [Compound 1-11, 1-{4′-[4-(2-Imino-5-phenyl-[1,3,4]oxadiazol-3-ylmethyl)-3-methyl-isoxazol-5-yl]-biphenyl-4-yl}-cyclopropanecarboxylic acid] | > 6.52
Cc1noc(-c2ccc(-c3ccc(C4(C(=O)O)CC4)cc3)cc2)c1CN1C(=O)OC[C@@H]1Cc1ccccc1 [Compound 1-12, 1-{4′-[4-((S)-4-Benzyl-2-oxo-oxazolidin-3-ylmethyl)-3-methyl-isoxazol-5-yl]-biphenyl-4-yl}-cyclopropanecarboxylic acid] | < 4.30
